Experimental data reported in US20150025077A1 (COYOTE PHARMACEUTICALS, INC., priority 2012, published 2015).
“And” between values parts separate entries of the source, which are not always exact repeats. Equal values may be shown once.

Columns and labels:
[1] = test system: HSP90; test: HSP90 gene expression in rat brain tissue, qRT-PCR; format: in vivo; conditions: 12 mg/kg oral
Description: […] Expression of selected HSPs was detected using qRT-PCR with expression of the GAPDH gene used as the control. To represent the effect of CNS-102 on HSP expression, mean fold change is calculated as CNS-102 treated/PBS treated for each HSP at each time point.

[2] = Pharmacokinetics of CNS-102 in rats (IV, oral); format: in vivo; conditions: rat
Description: Rats were administered a single dose of CNS-102 either intravenously (12 mg/kg) or orally (24 mg/kg), and blood samples were taken to measure the average plasma concentrations of CNS-102 over time.
The formulation for this study includes the following: […]
Formulations: (Dose: 24 mg/kg; Study Date: 4-16-2012)

[3] = 12 mg/kg IV, individual rats 1-3, 12 mg/kg
[4] = 12 mg/kg IV, individual rats 2, 3, 12 mg/kg
[5] = 24 mg/kg oral vs 12 mg/kg IV, average

CC(=O)CC/C=C(\C)CC/C=C(\C)CC/C=C(\C)CCC=C(C)C [CNS-102]
HSP90 mean fold change (CNS-102 treated/PBS treated), mean ± SD ([1]; 24 h): 1.32 ± 0.95
HSP90 mean fold change (CNS-102 treated/PBS treated), mean ± SD ([1]; 48 h): 1.16 ± 0.55
HSP90 mean fold change (CNS-102 treated/PBS treated), mean ± SD ([1]; 72 h): 2.59 ± 1.27
HSP90 mean fold change (CNS-102 treated/PBS treated), mean ± SD ([1]; 96 h): 1.68 ± 0.72
Plasma Concentration of CNS-102 ([2]; 12 mg/kg IV, 5 min, average): 2402.5 ng/mL
Plasma Concentration of CNS-102 ([2]; 12 mg/kg IV, 5 min, individual rats 1-3, 12 mg/kg): 1268.2 ng/mL and 4087.5 ng/mL
Plasma Concentration of CNS-102 ([2]; 12 mg/kg IV, 10 min, average): 869.6 ng/mL
Plasma Concentration of CNS-102 ([2]; 12 mg/kg IV, 10 min, individual rats 1-3, 12 mg/kg): 227.0 ng/mL and 929.0 ng/mL
Plasma Concentration of CNS-102 ([2]; 12 mg/kg IV, 20 min, average): 518.9 ng/mL
Plasma Concentration of CNS-102 ([2]; 12 mg/kg IV, 20 min, individual rats 1-3, BQL set to zero, 12 mg/kg): 0.00 ng/mL and 652.7 ng/mL
Plasma Concentration of CNS-102 ([2]; 12 mg/kg IV, 30 min, average): 334.7 ng/mL
Plasma Concentration of CNS-102 ([2]; 12 mg/kg IV, 30 min, individual rats 1-3, BQL set to zero): 0.00 ng/mL
Plasma Concentration of CNS-102 ([2]; 12 mg/kg IV, 60 min, average): 325.8 ng/mL
Plasma Concentration of CNS-102 ([2]; 12 mg/kg IV, 60 min, individual rats 1-3, BQL set to zero): 0.00 ng/mL
Plasma Concentration of CNS-102 ([2]; 12 mg/kg IV, 120 min, average): 150.2 ng/mL
Plasma Concentration of CNS-102 ([2]; 12 mg/kg IV, 120 min, individual rats 1-3, BQL set to zero): 0.00 ng/mL
Plasma Concentration of CNS-102 ([2]; 12 mg/kg IV, 240 min, average): 209.0 ng/mL
Plasma Concentration of CNS-102 ([2]; 12 mg/kg IV, 240 min, individual rats 1-3, BQL set to zero): 0.00 ng/mL
Plasma Concentration of CNS-102 ([2]; 12 mg/kg IV, 480 min, average): 77.4 ng/mL
Plasma Concentration of CNS-102 ([2]; 12 mg/kg IV, 480 min, individual rats 1-3, BQL set to zero): 0.00 ng/mL
Plasma Concentration of CNS-102 ([2]; 12 mg/kg IV, 720 min, average): 0.0 ng/mL
Plasma Concentration of CNS-102 ([2]; 12 mg/kg IV, 720 min, individual rats 1-3, BQL set to zero): 0.00 ng/mL
AUC(0-inf) ([2]; 12 mg/kg IV, average): 208728 ng·min/mL
AUC(0-last) ([2]; 12 mg/kg IV, average): 115146 ng·min/mL
C0 ([2]; 12 mg/kg IV, average): 9144.0 ng/mL
Vss ([2]; 12 mg/kg IV, average): 9.796 L/kg
Vz ([2]; 12 mg/kg IV, average): 12.039 L/kg
t1/2 ([2]; 12 mg/kg IV, average): 2.45 h
AUC(0-last) [2, 3]: 19934.3 ng·min/mL and 95802.8 ng·min/mL and 229701.4 ng·min/mL
C0 [2, 3]: 7086.8 ng/mL and 17984.5 ng/mL and 2360.7 ng/mL
AUC(0-inf) [2, 4]: 115420.9 ng·min/mL and 302035.6 ng·min/mL
Vss [2, 4]: 6.0519 L/kg and 13.5396 L/kg
Vz [2, 4]: 11.6998 L/kg and 12.3785 L/kg
t1/2 [2, 4]: 1.3 h and 3.6 h
F (0-inf) [2, 5]: 49.1%
F (0-last) [2, 5]: 82.1%
Plasma Concentration of CNS-102 ([2]; 24 mg/kg oral, 10 min, average): 0.0 ng/mL
Plasma Concentration of CNS-102 ([2]; 24 mg/kg oral, 10 min, individual rats 4-6, BQL set to zero): 0 ng/mL
Plasma Concentration of CNS-102 ([2]; 24 mg/kg oral, 30 min, average): 193.3 ng/mL
Plasma Concentration of CNS-102 ([2]; 24 mg/kg oral, 30 min, individual rats 4-6, 24 mg/kg): 193.8 ng/mL and 224.3 ng/mL and 161.8 ng/mL
Plasma Concentration of CNS-102 ([2]; 24 mg/kg oral, 60 min, average): 576.8 ng/mL
Plasma Concentration of CNS-102 ([2]; 24 mg/kg oral, 60 min, individual rats 4-6, 24 mg/kg): 331.9 ng/mL and 500.2 ng/mL
Plasma Concentration of CNS-102 ([2]; 24 mg/kg oral, 120 min, average): 176.8 ng/mL
Plasma Concentration of CNS-102 ([2]; 24 mg/kg oral, 120 min, individual rats 4-6): 147.6 ng/mL
Plasma Concentration of CNS-102 ([2]; 24 mg/kg oral, 240 min, average): 298.0 ng/mL
